These results are taken from article PMC9967275, “Screening the Pathogen Box to Discover and Characterize New Cruzain and TbrCatL Inhibitors” (Pathogens, 2023).
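Also: at 5 µM compound concentration.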

cruzain, sequence (P25779 123-337 limits assumed): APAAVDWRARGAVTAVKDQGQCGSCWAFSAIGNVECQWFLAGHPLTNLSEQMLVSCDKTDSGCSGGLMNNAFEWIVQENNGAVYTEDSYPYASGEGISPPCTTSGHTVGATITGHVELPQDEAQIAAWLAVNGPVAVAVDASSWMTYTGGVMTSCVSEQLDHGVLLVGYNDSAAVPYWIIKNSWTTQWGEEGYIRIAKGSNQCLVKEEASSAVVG

One test concerns the target cruzain (Trypanosoma cruzi, UniProt P25779). Briefly: biochemical. Conditions: 0’ (pre-incubation time); sheet "Screening results". Put shortly: (§1)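 Recombinant enzymes assayed by Z-Phe-Arg-AMC cleavage at 25 °C, fluorescence 340/440 nm over 5–7 min, with 10 min or no enzyme–compound preincubation.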
Regarding `COc1ccc(C(=N)N)cc1-c1cn(-c2ccc(C(=N)N)cc2)nn1` [MMV675998], the “Cruzain 0’ Inhibition” value stood at 6%.
As to `O=C(Nc1c(O)cccc1-c1nc2c(C(=O)O)cccc2o1)c1cc(-c2ccccc2)on1` [MMV676008], the “Cruzain 0’ Inhibition” value is -3.3%.
In the case of `Clc1ccc(Cl)c(CO[C@H]2CCCC[C@@H]2n2ccnc2)c1` [MMV676048], the “Cruzain 0’ Inhibition” value came to 2.8%.
Same read-out and setting: under `CS(=O)(=O)N1CCC(Cn2nc(Cc3cccc4ccccc34)c3c(N)ncnc32)CC1` [MMV676050] stands 0.2%; under `COc1cc(NC(=O)Cc2nn(C)c(=O)c3ccccc23)ccc1Cl` [MMV676053], 0%.
`CC(C)(C)OC(=O)N1CCN(c2cc(-c3ccc(Oc4ccccc4)cc3)n[nH]2)CC1` [MMV676057]: the “Cruzain 0’ Inhibition” value is recorded as -1.5%.
In the case of `CCCCc1ccc(NC(=O)Nc2ccc(O[C@H]3CCCC[C@@H]3N(C)c3ccccc3)c(F)c2)cc1` [MMV676063], the “Cruzain 0’ Inhibition” value is reported as -13%.
Same read-out and setting: under `CC(=O)N(CCN(C(=O)c1ccc(F)cc1)c1ccccc1)c1ccccc1` [MMV676064] stands -6%.
For the compound `Clc1cccc(CO[C@H]2CCc3ccccc3[C@@H]2n2ccnn2)c1` [MMV676159], the “Cruzain 0’ Inhibition” value is -3%.
`c1ccc(Oc2ccc(-c3cc(CN4CCOCC4)[nH]n3)cc2)cc1` [MMV676161]: the “Cruzain 0’ Inhibition” value is on record as -1.3%.
For the compound `O=C(Nc1ccccc1-c1nc2c(C(=O)O)cccc2o1)c1ccccc1` [MMV676162], the “Cruzain 0’ Inhibition” value is recorded as 8%.
Turning to `Nc1ncnc2c1c(Cc1cccc3ccccc13)nn2CC1CCNCC1` [MMV676182], the “Cruzain 0’ Inhibition” value is listed as -4.4%.
As to `COC(=O)c1cccc2oc(-c3cccc(OC)c3NC(=O)c3cc(-c4ccccc4)on3)nc12` [MMV676186], the “Cruzain 0’ Inhibition” value is reported as -3.5%.
In the case of `CC(C)C(Oc1cccc2ccccc12)C(=O)O` (stereo not drawn) [MMV676191], the “Cruzain 0’ Inhibition” value was determined as 2.8%.
On to `CN1CCN(c2nccc3nc(-c4ccc(F)c(F)c4)[nH]c23)CC1` [MMV676260], for which the “Cruzain 0’ Inhibition” value was -9%.
As for `C[C@H](C(N)=O)N1CCCC[C@H]1c1ccc(OCc2cccc(F)c2)cc1` [MMV676269], the “Cruzain 0’ Inhibition” value was 0.4%.
In the case of `Nc1ncc(Br)cc1-c1nc2cc(Cl)cnc2[nH]1` [MMV676358], the “Cruzain 0’ Inhibition” value was -2.8%.
`N#Cc1nc(-c2ccccc2F)oc1NCCc1ccccc1` [MMV676384]: the “Cruzain 0’ Inhibition” value is reported as 7%.

The test is the same for the next values; noted with them: 10’ (pre-incubation time); sheet "Screening results".
Regarding `COc1ccc(C(=N)N)cc1-c1cn(-c2ccc(C(=N)N)cc2)nn1` [MMV675998], the “Cruzain 10’ Inhibition” value was 26%.
Consider `O=C(Nc1c(O)cccc1-c1nc2c(C(=O)O)cccc2o1)c1cc(-c2ccccc2)on1` [MMV676008], for which the “Cruzain 10’ Inhibition” value was found to be 8%.
Take `Clc1ccc(Cl)c(CO[C@H]2CCCC[C@@H]2n2ccnc2)c1` [MMV676048]: the “Cruzain 10’ Inhibition” value is 5.7%.
In the case of `CS(=O)(=O)N1CCC(Cn2nc(Cc3cccc4ccccc34)c3c(N)ncnc32)CC1` [MMV676050], the “Cruzain 10’ Inhibition” value came to 8%.
Turning to `COc1cc(NC(=O)Cc2nn(C)c(=O)c3ccccc23)ccc1Cl` [MMV676053], the “Cruzain 10’ Inhibition” value was found to be 1.7%.
Still for that read-out and setting: as for `CC(C)(C)OC(=O)N1CCN(c2cc(-c3ccc(Oc4ccccc4)cc3)n[nH]2)CC1` [MMV676057], the figure is -3.4%; as for `CCCCc1ccc(NC(=O)Nc2ccc(O[C@H]3CCCC[C@@H]3N(C)c3ccccc3)c(F)c2)cc1` [MMV676063], -3.3%.
Consider `CC(=O)N(CCN(C(=O)c1ccc(F)cc1)c1ccccc1)c1ccccc1` [MMV676064], for which the “Cruzain 10’ Inhibition” value is 3%.
Regarding `Clc1cccc(CO[C@H]2CCc3ccccc3[C@@H]2n2ccnn2)c1` [MMV676159], the “Cruzain 10’ Inhibition” value is -1.8%.
For the compound `c1ccc(Oc2ccc(-c3cc(CN4CCOCC4)[nH]n3)cc2)cc1` [MMV676161], the “Cruzain 10’ Inhibition” value is 1.7%.
As to `O=C(Nc1ccccc1-c1nc2c(C(=O)O)cccc2o1)c1ccccc1` [MMV676162], the “Cruzain 10’ Inhibition” value was found to be 9%.
As for `Nc1ncnc2c1c(Cc1cccc3ccccc13)nn2CC1CCNCC1` [MMV676182], the “Cruzain 10’ Inhibition” value came out at 4.5%.
Take `COC(=O)c1cccc2oc(-c3cccc(OC)c3NC(=O)c3cc(-c4ccccc4)on3)nc12` [MMV676186]: the “Cruzain 10’ Inhibition” value was determined as 5.3%.
For `CC(C)C(Oc1cccc2ccccc12)C(=O)O` (stereo not drawn) [MMV676191], the “Cruzain 10’ Inhibition” value was determined as 1.5%.
As to `CN1CCN(c2nccc3nc(-c4ccc(F)c(F)c4)[nH]c23)CC1` [MMV676260], the “Cruzain 10’ Inhibition” value stood at 1.2%.
For the compound `C[C@H](C(N)=O)N1CCCC[C@H]1c1ccc(OCc2cccc(F)c2)cc1` [MMV676269], the “Cruzain 10’ Inhibition” value is on record as 2%.
As for `Nc1ncc(Br)cc1-c1nc2cc(Cl)cnc2[nH]1` [MMV676358], the “Cruzain 10’ Inhibition” value worked out at 8%.
For `N#Cc1nc(-c2ccccc2F)oc1NCCc1ccccc1` [MMV676384], the “Cruzain 10’ Inhibition” value was found to be 6%.

A further test deals with T1, TbrCatL (Trypanosoma brucei rhodesiense, UniProt Q95PM0).
T1 construct: Conor Caffrey (University of California San Diego)
T1 sequence (Q95PM0 entry or part of it): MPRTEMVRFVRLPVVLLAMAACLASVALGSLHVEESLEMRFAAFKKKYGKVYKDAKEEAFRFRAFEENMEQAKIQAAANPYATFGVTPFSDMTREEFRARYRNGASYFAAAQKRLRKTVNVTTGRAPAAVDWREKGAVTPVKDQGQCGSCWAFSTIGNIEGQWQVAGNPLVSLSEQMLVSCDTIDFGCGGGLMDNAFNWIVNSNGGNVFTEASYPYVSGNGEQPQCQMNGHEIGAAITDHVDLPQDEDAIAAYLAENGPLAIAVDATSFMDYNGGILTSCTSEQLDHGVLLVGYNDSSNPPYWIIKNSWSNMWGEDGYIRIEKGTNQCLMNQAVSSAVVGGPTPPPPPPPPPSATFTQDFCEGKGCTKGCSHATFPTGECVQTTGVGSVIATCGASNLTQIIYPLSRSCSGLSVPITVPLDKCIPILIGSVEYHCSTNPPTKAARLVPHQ
As to the kind of experiment: TbrCatL enzymatic inhibition assay (cleavage of fluorogenic substrate Z-FR-AMC). The class given is biochemical. To be noted: 0’ (pre-incubation time); sheet "Screening results". The procedure, abridged:
as §1
For the compound `COc1ccc(C(=N)N)cc1-c1cn(-c2ccc(C(=N)N)cc2)nn1` [MMV675998], the “TbrCatL 0’ Inhibition” value was 2%.
For `O=C(Nc1c(O)cccc1-c1nc2c(C(=O)O)cccc2o1)c1cc(-c2ccccc2)on1` [MMV676008], the “TbrCatL 0’ Inhibition” value came out at 2.6%.
`Clc1ccc(Cl)c(CO[C@H]2CCCC[C@@H]2n2ccnc2)c1` [MMV676048]: the “TbrCatL 0’ Inhibition” value stood at 0.8%.
For the compound `CS(=O)(=O)N1CCC(Cn2nc(Cc3cccc4ccccc34)c3c(N)ncnc32)CC1` [MMV676050], the “TbrCatL 0’ Inhibition” value is 0.1%.
`COc1cc(NC(=O)Cc2nn(C)c(=O)c3ccccc23)ccc1Cl` [MMV676053]: the “TbrCatL 0’ Inhibition” value came to 1.2%.
As for `CC(C)(C)OC(=O)N1CCN(c2cc(-c3ccc(Oc4ccccc4)cc3)n[nH]2)CC1` [MMV676057], the “TbrCatL 0’ Inhibition” value was -2.3%.
In the case of `CCCCc1ccc(NC(=O)Nc2ccc(O[C@H]3CCCC[C@@H]3N(C)c3ccccc3)c(F)c2)cc1` [MMV676063], the “TbrCatL 0’ Inhibition” value is recorded as -17%.
With `CC(=O)N(CCN(C(=O)c1ccc(F)cc1)c1ccccc1)c1ccccc1` [MMV676064], the “TbrCatL 0’ Inhibition” value is on record as -5%.
As to `Clc1cccc(CO[C@H]2CCc3ccccc3[C@@H]2n2ccnn2)c1` [MMV676159], the “TbrCatL 0’ Inhibition” value is given as -13%.
Same read-out and setting: under `c1ccc(Oc2ccc(-c3cc(CN4CCOCC4)[nH]n3)cc2)cc1` [MMV676161] stands -3%; under `O=C(Nc1ccccc1-c1nc2c(C(=O)O)cccc2o1)c1ccccc1` [MMV676162], 2.6%; under `Nc1ncnc2c1c(Cc1cccc3ccccc13)nn2CC1CCNCC1` [MMV676182], 1.4%.
Turning to `COC(=O)c1cccc2oc(-c3cccc(OC)c3NC(=O)c3cc(-c4ccccc4)on3)nc12` [MMV676186], the “TbrCatL 0’ Inhibition” value was -3.7%.
Regarding `CC(C)C(Oc1cccc2ccccc12)C(=O)O` (stereo not drawn) [MMV676191], the “TbrCatL 0’ Inhibition” value is reported as -3%.
For the compound `CN1CCN(c2nccc3nc(-c4ccc(F)c(F)c4)[nH]c23)CC1` [MMV676260], the “TbrCatL 0’ Inhibition” value is listed as 0.7%.
As for `C[C@H](C(N)=O)N1CCCC[C@H]1c1ccc(OCc2cccc(F)c2)cc1` [MMV676269], the “TbrCatL 0’ Inhibition” value was -3%.
`Nc1ncc(Br)cc1-c1nc2cc(Cl)cnc2[nH]1` [MMV676358]: the “TbrCatL 0’ Inhibition” value is listed as -9%.
As to `N#Cc1nc(-c2ccccc2F)oc1NCCc1ccccc1` [MMV676384], the “TbrCatL 0’ Inhibition” value was 3.4%.

The same test, now with this note: 10’ (pre-incubation time); sheet "Screening results".
Turning to `COc1ccc(C(=N)N)cc1-c1cn(-c2ccc(C(=N)N)cc2)nn1` [MMV675998], the “TbrCatL 10’ Inhibition” value is on record as 34%.
As to `O=C(Nc1c(O)cccc1-c1nc2c(C(=O)O)cccc2o1)c1cc(-c2ccccc2)on1` [MMV676008], the “TbrCatL 10’ Inhibition” value is on record as -3.7%.
Turning to `Clc1ccc(Cl)c(CO[C@H]2CCCC[C@@H]2n2ccnc2)c1` [MMV676048], the “TbrCatL 10’ Inhibition” value was -3.8%.
For the compound `CS(=O)(=O)N1CCC(Cn2nc(Cc3cccc4ccccc34)c3c(N)ncnc32)CC1` [MMV676050], the “TbrCatL 10’ Inhibition” value is recorded as 3%.
Regarding `COc1cc(NC(=O)Cc2nn(C)c(=O)c3ccccc23)ccc1Cl` [MMV676053], the “TbrCatL 10’ Inhibition” value is listed as 1.5%.
Turning to `CC(C)(C)OC(=O)N1CCN(c2cc(-c3ccc(Oc4ccccc4)cc3)n[nH]2)CC1` [MMV676057], the “TbrCatL 10’ Inhibition” value is given as -12%.
Regarding `CCCCc1ccc(NC(=O)Nc2ccc(O[C@H]3CCCC[C@@H]3N(C)c3ccccc3)c(F)c2)cc1` [MMV676063], the “TbrCatL 10’ Inhibition” value is given as -15%.
Regarding `CC(=O)N(CCN(C(=O)c1ccc(F)cc1)c1ccccc1)c1ccccc1` [MMV676064], the “TbrCatL 10’ Inhibition” value was -7%.
Same read-out and setting: as for `Clc1cccc(CO[C@H]2CCc3ccccc3[C@@H]2n2ccnn2)c1` [MMV676159], the figure is -6%.
Same read-out and setting: as for `c1ccc(Oc2ccc(-c3cc(CN4CCOCC4)[nH]n3)cc2)cc1` [MMV676161], the figure is -2.5%; as for `O=C(Nc1ccccc1-c1nc2c(C(=O)O)cccc2o1)c1ccccc1` [MMV676162], 6%; as for `Nc1ncnc2c1c(Cc1cccc3ccccc13)nn2CC1CCNCC1` [MMV676182], 3.4%.
As for `COC(=O)c1cccc2oc(-c3cccc(OC)c3NC(=O)c3cc(-c4ccccc4)on3)nc12` [MMV676186], the “TbrCatL 10’ Inhibition” value was -5%.
With `CC(C)C(Oc1cccc2ccccc12)C(=O)O` (stereo not drawn) [MMV676191], the “TbrCatL 10’ Inhibition” value worked out at 2%.
As for `CN1CCN(c2nccc3nc(-c4ccc(F)c(F)c4)[nH]c23)CC1` [MMV676260], the “TbrCatL 10’ Inhibition” value worked out at 5%.
As to `C[C@H](C(N)=O)N1CCCC[C@H]1c1ccc(OCc2cccc(F)c2)cc1` [MMV676269], the “TbrCatL 10’ Inhibition” value is -4.7%.
Same read-out and setting: under `Nc1ncc(Br)cc1-c1nc2cc(Cl)cnc2[nH]1` [MMV676358] stands -2.5%.
Turning to `N#Cc1nc(-c2ccccc2F)oc1NCCc1ccccc1` [MMV676384], the “TbrCatL 10’ Inhibition” value is 7%.
